According to patent publication EP0703776B1, “UTILIZATION OF A PEPTIDE HAVING A LYSIN GROUP AND AN ALANINE GROUP IN THE TERMINAL POSITION FOR THE PREPARATION OF A DEPIGMENTING COMPOSITION, AND DEPIGMENTING COMPOSITION THUS OBTAINED” (PARFUMS CHRISTIAN DIOR, priority 1993, dated 1997):
No end group written: not given here.

Tested on: tyrosinase de champignon
Experiment: Tyrosinase inhibition (kinetics of dopaquinone formation at 480 nm, substrates L-tyrosine + L-dopa)
Assay type: biochemical

pourcentage d'inhibition de la tyrosinase (peptide 5.10^-3 M, series T0 (substrates added at time T0)): 98% | pourcentage d'inhibition de la tyrosinase (peptide 5.10^-4 M, series T 15 min (substrates added 15 min after mixing peptide and tyrosinase)): 98% | effet d'inhibition de la tyrosinase (peptide 5.10^-6 M, result in words): déjà très significative
Substance: KCTCCA (cysteine pairing not given here) [hexapeptide, commercialement disponible chez Sigma, France]
